Reference: patent US9695123B2, “Microbiocides” (Syngenta Participations AG, priority 2013, dated 2017)

Key:
[1] = system: Mycosphaerella arachidis (Cercospora arachidicola); experiment: Mycosphaerella arachidis (Cercospora arachidicola) / liquid culture (early leaf spot); assay type: cell-based; conditions: 96 h, liquid culture (PDB), inhibition of growth photometrically 4-5 days after application, read-out: disease control
Experimental: (§1) Fungicidal Activity Against Mycosphaerella arachidis (Cercospora arachidicola)/Liquid Culture (Early Leaf Spot) Conidia of the fungus from cryogenic storage were directly mixed into nutrient broth (PDB potato dextrose broth). After placing a (DMSO) solution of test compound into a microtiter plate (96-well format), the nutrient broth containing the fungal spores was added. The test plates were incubated at 24° C. and the inhibition of growth was determined photometrically 4-5 days after application.

Gaeumannomyces graminis = Gaeumannomyces graminis / liquid culture (take-all of cereals); assay type: cell-based; conditions: 96 h, liquid culture (PDB), inhibition of growth photometrically 4-5 days after application, read-out: disease control
Experimental: as §1, with “Against Gaeumannomyces graminis/Liquid” for “Against Mycosphaerella arachidis (Cercospora arachidicola)/Liquid”, “Culture (Take-all of Cereals) Mycelial fragments” for “Culture (Early Leaf Spot) Conidia”, “spores is” for “spores was”

Fusarium culmorum = Fusarium culmorum / liquid culture (root rot); assay type: cell-based; conditions: liquid culture (PDB), inhibition of growth photometrically after 48 hrs, read-out: disease control
Experimental: Fungicidal Activity Against Fusarium culmorum/Liquid Culture (Root Rot)
Conidia of the fungus from cryogenic storage were directly mixed into nutrient broth (PDB potato dextrose broth). After placing a (DMSO) solution of the test compounds into a microtiter plate (96-well format) the nutrient broth containing the fungal spores was added. The test plates were incubated at 24 C and the inhibition of growth was determined photometrically after 48 hrs.

[2] = system: Mycosphaerella graminicola (Septoria tritici); experiment: Mycosphaerella graminicola (Septoria tritici) / liquid culture (Septoria blotch); assay type: cell-based; conditions: Zymoseptoria tritici, 96 h, liquid culture (PDB), inhibition of growth photometrically 4-5 days after application, read-out: disease control
Experimental: as §1, with “graminicola (Septoria tritici)/Liquid” for “arachidis (Cercospora arachidicola)/Liquid”, “(Septoria Blotch)” for “(Early Leaf Spot)”

[3] = system: Puccinia recondita f. Sp. Tritici; experiment: Puccinia recondita f. sp. tritici / wheat / leaf disc curative (brown rust); assay type: in vivo; conditions: foliar, 192 h, applied one day after inoculation, assessed 8 dpi, read-out: disease control
Experimental: Fungicidal Activity Against Puccinia recondita f. Sp. Tritici/Wheat/Leaf Disc Curative (Brown Rust) Wheat leaf segments are placed on agar in multiwell plates (24-well format). The leaf disks are then inoculated with a spore suspension of the fungus. One day after inoculation the test solution is applied. After appropriate incubation the activity of a compound is assessed 8 dpi (days after inoculation) as curative fungicidal activity. Dose range: 200-22 ppm.

[4] = system: Botryotinia fuckeliana (Botrytis cinerea); experiment: Botryotinia fuckeliana (Botrytis cinerea) / liquid culture (gray mould); assay type: cell-based; conditions: 72 h, liquid culture (Vogels broth), inhibition of growth photometrically 3-4 days after application, read-out: disease control
Experimental: as §1, with “Botryotinia fuckeliana (Botrytis cinerea)/Liquid” for “Mycosphaerella arachidis (Cercospora arachidicola)/Liquid”, “(Gray Mould)” for “(Early Leaf Spot)”, “(Vogels” for “(PDB potato dextrose”, “3-4” for “4-5”

[5] = system: Blumeria graminis f. Sp. Tritici (Erysiphe graminis f. Sp. Tritici); experiment: Blumeria graminis f. sp. tritici / wheat / leaf disc preventative (powdery mildew on wheat); assay type: in vivo; conditions: foliar, wheat leaf disc cv. Kanzler, inoculated 1 day after application, assessed 6-8 days after application, read-out: disease control
Experimental: Fungicidal Activity Against Blumeria graminis f. Sp. Tritici (Erysiphe graminis f. Sp. Tritici)/Wheat/Leaf Disc Preventative (Powdery Mildew on Wheat)
Wheat leaf segments cv. Kanzler were placed on agar in a multiwell plate (24-well format) and sprayed with the formulated test compound diluted in water. The leaf disks were inoculated by shaking powdery mildew infected plants above the test plates 1 day after application. The inoculated leaf disks were incubated at 20° C. and 60% rh under a light regime of 24 h darkness followed by 12 h light/12 h darkness in a climate chamber and the activity of a compound was assessed as percent disease control compared to untreated when an appropriate level of disease damage appears on untreated check leaf segments (6-8 days after application).

[6] = system: Puccinia recondite f. Sp. Tritici; experiment: Puccinia recondita f. sp. tritici / wheat / leaf disc preventative (brown rust); assay type: in vivo; conditions: foliar, wheat leaf disc cv. Kanzler, inoculated 1 day after application, assessed 7-9 days after application, read-out: disease control
Experimental: Fungicidal Activity Against Puccinia recondite f. Sp. Tritici/Wheat/Leaf Disc Preventative (Brown Rust) Wheat leaf segments cv. Kanzler were placed on agar in multiwell plates (24-well format) and sprayed with the formulated test compound diluted in water. The leaf disks were inoculated with a spore suspension of the fungus 1 day after application. The inoculated leaf segments were incubated at 19° C. and 75% rh under a light regime of 12 h light/12 h darkness in a climate cabinet and the activity of a compound was assessed as percent disease control compared to untreated when an appropriate level of disease damage appears in untreated check leaf segments (7-9 days after application).

| SMILES | inhibition of growth at 200 ppm [1] | inhibition of growth at 200 ppm (Gaeumannomyces graminis) | inhibition of growth at 200 ppm (Fusarium culmorum) | inhibition of growth at 200 ppm [2] | pest or weed control at 200 ppm [3] | inhibition of growth at 200 ppm [4] | pest or weed control at 200 ppm [5] | pest or weed control at 200 ppm [6] | melting point |
| --- | --- | --- | --- | --- | --- | --- | --- | --- | --- |
| N#CC(Cc1cccnc1)c1ccc(C#CC2CC2)cc1 (centres unmarked) [Compound 1] | ≥ 80% | ≥ 80% | ≥ 80% | ≥ 80% | ≥ 80% | ≥ 80% | ≥ 80% | – | – |
| N#CC(Cc1cncnc1)c1ccc(C#CC2CC2)cc1 (centres unmarked) [Compound 2] | ≥ 80% | ≥ 80% | ≥ 80% | ≥ 80% | ≥ 80% | – | ≥ 80% | ≥ 80% | – |
| Cc1cncc(CC(C#N)c2ccc(C#CC3CC3)cc2)c1 (centres unmarked) [Compound 3] | ≥ 80% | ≥ 80% | ≥ 80% | ≥ 80% | – | ≥ 80% | ≥ 80% | – | – |
| OC(Cn1ccnc1)c1ccc(C#CC2CC2)cc1Cl (centres unmarked) [Compound 5] | ≥ 80% | – | – | – | ≥ 80% | ≥ 80% | ≥ 80% | ≥ 80% | – |
| OC(Cn1ccnc1)(c1ccc(C#CC2CC2)cc1)C(F)(F)c1ccccn1 (centres unmarked) [Compound 6] | ≥ 80% | ≥ 80% | – | ≥ 80% | ≥ 80% | ≥ 80% | ≥ 80% | ≥ 80% | – |
| OC(Cn1cncn1)(c1ccc(C#CC2CC2)cc1)C(F)(F)c1ccccn1 (centres unmarked) [Compound 7] | ≥ 80% | ≥ 80% | ≥ 80% | ≥ 80% | ≥ 80% | ≥ 80% | ≥ 80% | ≥ 80% | – |
| N#CC(Cc1cccnc1)c1ccc(C#CC2CC2)cc1F (centres unmarked) [Compound 10] | ≥ 80% | ≥ 80% | ≥ 80% | ≥ 80% | ≥ 80% | ≥ 80% | ≥ 80% | ≥ 80% | – |
| CC(C)C#Cc1ccc(C(O)(Cn2cncn2)C(F)(F)c2ccc(Cl)cn2)cc1 (centres unmarked) [Compound 11] | ≥ 80% | ≥ 80% | ≥ 80% | ≥ 80% | ≥ 80% | ≥ 80% | ≥ 80% | ≥ 80% | 128 to 132 °C |
| CCCC#Cc1ccc(C(O)(Cn2cncn2)C(F)(F)c2ccc(Cl)cn2)cc1 (centres unmarked) [Compound 12] | ≥ 80% | ≥ 80% | ≥ 80% | ≥ 80% | ≥ 80% | ≥ 80% | ≥ 80% | ≥ 80% | 124 to 128 °C |
| OC(Cn1cncn1)(c1ccc(C#CC2CC2)cc1)C(F)(F)c1ccc(Cl)cn1 (centres unmarked) [Compound 13] | ≥ 80% | – | ≥ 80% | ≥ 80% | ≥ 80% | ≥ 80% | ≥ 80% | ≥ 80% | 88 to 94 °C |
